Data set [1] deals with HuPrime model GA6201 human gastric cancer subcutaneous transplantation PDX tumor. In words: GA6201 human gastric cancer subcutaneous PDX model. Type of data set: in vivo, BALB/c nude mice.
A further data set is described as follows: Plasma stability, rat. As for the experimental part: The frozen plasma was immediately melted in a water bath of 37° C. The plasma was centrifuged at 3, 220 g for 10 minutes to remove the blood clots and the supernatant was collected into a new test tube. The pH of the plasma was checked and recorded. Note: a. Only plasma that has been melted no more than twice since arrival was used; b. Only plasma in the range of pH 7 to pH 8 was used.
1 mM of working solutions of the test compound and the control compound mevinolin were prepared in DMSO. 1 mM of the working solution of the control compound solution in […] was prepared in acetonitrile. 4 μL of the working solution was added to 796 μL of pre-incubated plasma to achieve 5 μM of final concentration. The final concentration of solvent was 0.5%.
[…] The assay is performed in duplicate. At the end of the two hour incubation, 300 μL of quenched solution at room temperature (acetonitrile containing internal standards (acetonitrile, 100 nM Alprazolam, 500 nM Labetalol and 2 μM ketoprofen)) was added to terminate the reaction. Samples at time 0 were prepared by adding 50 μL of standard addition plasma to the new test tubes with 300 μL of quenched solution at room temperature. The test tubes were mixed by vortex for 5 minutes. The samples in the plates were centrifuged at 3, 220×g for 30 minutes at 4° C. to precipitate the proteins. 100 μL of supernatant was transferred to a new plate. The supernatant was diluted with 100 μL of water, mixed well and analysed using LC-MS/MS.

The next data set addresses T1, CYP450R enzyme (Homo sapiens, UniProt P16435).
T1 sequence (P16435 1-677): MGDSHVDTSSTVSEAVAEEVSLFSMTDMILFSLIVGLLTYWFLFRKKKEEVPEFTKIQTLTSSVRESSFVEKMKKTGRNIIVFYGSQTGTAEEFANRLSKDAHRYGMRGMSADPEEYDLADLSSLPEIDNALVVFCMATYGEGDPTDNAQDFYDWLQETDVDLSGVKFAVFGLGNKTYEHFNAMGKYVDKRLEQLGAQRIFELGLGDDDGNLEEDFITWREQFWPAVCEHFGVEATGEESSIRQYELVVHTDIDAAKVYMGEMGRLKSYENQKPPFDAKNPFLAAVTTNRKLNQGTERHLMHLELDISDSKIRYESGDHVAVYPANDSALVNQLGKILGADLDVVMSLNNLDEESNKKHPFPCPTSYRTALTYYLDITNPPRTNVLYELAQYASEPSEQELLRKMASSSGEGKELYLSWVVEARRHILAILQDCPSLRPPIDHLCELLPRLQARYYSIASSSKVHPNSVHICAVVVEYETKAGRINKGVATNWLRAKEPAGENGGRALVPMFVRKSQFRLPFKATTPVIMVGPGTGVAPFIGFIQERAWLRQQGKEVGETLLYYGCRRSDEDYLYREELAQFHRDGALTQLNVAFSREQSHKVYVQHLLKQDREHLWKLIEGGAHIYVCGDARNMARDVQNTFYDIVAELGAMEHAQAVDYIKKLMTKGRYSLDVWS
In words: Hypoxia-dependent reduction experiments. Type of data set: biochemical. The note with it: for reduction rate compared (compound A vs TH-302): NADPH and CYP 450R enzymes. As for the experimental part:
The ingredients were added to each test tube without the addition of NADPH. Then 50 μl of sample from condition B was transferred to 100 μl acetonitrile (T=0). For samples to be tested under hypoxic conditions, the test tubes were placed in an hypoxic chamber (BACTRON anaerobic/environmental chamber). The reaction was initiated by adding NADPH to test tubes A and C and the sample was then placed at 37° C. For samples to be tested in air, the test tubes were placed in a hot plate at 37° C. After 30 minutes and 2 hours of incubation, 50 μl of samples were taken from each test tube and mixed with 100 μl acetonitrile. Any protein precipitate was removed by spinning all test tubes and placed into HPLC vials for analysis. The results were compared to the calibration curve of the real standard.

Data on two compounds can be found in patent US20230339991A1, “HYPOXIA-ACTIVATED DNA ALKYLATING AGENT AND MEDICAL USE THEREOF” (ASCENTAWITS PHARMACEUTICALS, LTD., priority 2020, published 2023).

Each structure is given as a SMILES string. “And” between values parts separate entries of the source, which are not always exact repeats. Equal values may be shown once.

Take `O=[N+]([O-])c1ccc(C(OP(=O)(N2CC2)N2CC2)C(F)(F)F)c2ccccc12` (racemic) [Compound A]: in data set [1] (GA6201 PDX), the “effect of tumor growth inhibition compared with isocyclophosphamide” value is listed as “significant advantages”. The tumor volume in data set [1] (Group 06, 5-50 mg/kg regimen, day 7) stood at 123.19 mm^3; in data set [1] (Group 06, 5-50 mg/kg regimen, day 17) it was 219.91 mm^3; in data set [1] (Group 06, 5-50 mg/kg regimen, day 21), 246.57 mm^3; in data set [1] (Group 06, 5-50 mg/kg regimen, day 24) it was 271.72 mm^3; in data set [1] (Group 06, 5-50 mg/kg regimen, day 31), 270.68 mm^3; in data set [1] (Group 06, 5-50 mg/kg regimen, day 35) it was 299.31 mm^3. Besides, the tumor volume in data set [1] (Group 06, 5-50 mg/kg regimen, day 38) was 277.17 mm^3; in data set [1] (Group 06, 5-50 mg/kg regimen, day 45), 342.08 mm^3; in data set [1] (Group 06, 5-50 mg/kg regimen, day 49), 287.47 mm^3. The “Remaining percentage (%)” value was 101 ± 1.33% in the data set “Plasma stability, rat” (Rat plasma, 15 min); 88.9 ± 0.537% in “Plasma stability, rat” (Rat plasma, 60 min); 84.6 ± 1.20% in the data set “Plasma stability, rat” (Rat plasma, 90 min); 69.0% and 69.0 ± 1.10% in “Plasma stability, rat” (Rat plasma, 120 min); 100% in the data set “Plasma stability, rat” (Rat plasma, 2 h time course, 0 min); 100 ± 2.23% in the data set “Plasma stability, rat” (Rat plasma, time course, 30 min). Moreover, the Remaining percentage in the data set “Plasma stability, rat” (Rat plasma, after 30 minutes) was 52.11%. The compound further gave a half-life at 5 µM in the data set “Plasma stability, rat” (rat plasma) of 3.77 h. In addition, the “plasma stability” value in the data set “Plasma stability, rat” (rat plasma) is “unstable”. The “reduction rate compared (compound A vs TH-302)” value at CYP450R enzyme is “similar”. The hypoxia-dependent reduction reaction result at CYP450R enzyme (in the presence of NADPH and CYP 450R enzymes, 37° C.) is reported as “showed a hypoxia-dependent reduction reaction”.
With `Cn1c(COP(=O)(NCCBr)NCCBr)cnc1[N+](=O)[O-]` [TH-302, Evofosfamide], the tumor volume in data set [1] (Group 02, 60 mg/kg i.p., day 3) is reported as 122.22 mm^3; in data set [1] (Group 02, 60 mg/kg i.p., day 7), 129.39 mm^3; in data set [1] (Group 02, 60 mg/kg i.p., day 10) it was 175.00 mm^3; in data set [1] (Group 02, 60 mg/kg i.p., day 14) it was 190.74 mm^3; in data set [1] (Group 02, 60 mg/kg i.p., day 17), 189.23 mm^3; in data set [1] (Group 02, 60 mg/kg i.p., day 21) it was 217.96 mm^3. For the same compound, the tumor volume is recorded as 225.66 mm^3 in data set [1] (Group 02, 60 mg/kg i.p., day 24); 247.04 mm^3 in data set [1] (Group 02, 60 mg/kg i.p., day 28); 265.76 mm^3 in data set [1] (Group 02, 60 mg/kg i.p., day 31); 324.51 mm^3 in data set [1] (Group 02, 60 mg/kg i.p., day 35); 371.02 mm^3 in data set [1] (Group 02, 60 mg/kg i.p., day 38); 403.47 mm^3 in data set [1] (Group 02, 60 mg/kg i.p., day 42). For the same compound, the tumor volume in data set [1] (Group 02, 60 mg/kg i.p., day 45) is recorded as 484.83 mm^3; in data set [1] (Group 02, 60 mg/kg i.p., day 49), 578.60 mm^3; in data set [1] (Group 02, 60 mg/kg, QDx5/week × 2 wks, i.p., day 0), 94.15 mm^3. The “reduction rate compared (compound A vs TH-302)” value at CYP450R enzyme is listed as “similar”.

What is called half-life is the time needed for the level to fall by half in the phase considered. Low readings indicate fast loss, high ones slow loss.
